{
  "source": "patent US11337950B2",
  "about": "“Biologically active cannabidiol analogs” (University of Mississippi, priority 2016, dated 2022)",
  "key": {"[1]": {"assay": "In vivo eye tissue levels 90 min after topical application in Tocrisolve emulsion (Examples 12-14)", "design": "species or system New Zealand albino rabbits", "procedure": "Conscious male New Zealand albino rabbits were used. The formulations were applied topically into the rabbits eyes (50 μL containing the equivalent of 250 μg CBD) in Tocrisolve® emulsion formulations as described in Example 11. The animals were sacrificed 90 min. after drug application and the eye tissues harvested for analysis.\nThe same procedure was followed as shown under Example 12. Additional CBD analogs were tested in this example. In this example the tissue levels of both free CBD and intact analog were determined.\nFormulations: Fifty microlitres of 0.5% w/v CBD in Tocrisolve emulsion (Dose: 0.25 mg)\nAnimal model: Conscious male new Zealand albino rabbits, Duration of the study: 90 min.\nAqueous humor, Vitreous humor, Retina-Choroid and Iris-Ciliary bodies analysed for parent compound as well as CBD.\nFormulations: Fifty microlitres of 0.5% w/v Tocrisolve emulsion formulations (Dose: 0.25 mg)\nAnimal model: Conscious male new Zealand albino rabbits, Duration of the study: 90 min"}, "[2]": {"assay": "Bioavailability of CBD-Mono-VHS from a lipophilic suppository (Example 16)", "assay_type": "in vivo", "design": "unit not given here", "conditions": "rats, rectal 7.5 mg, Lipophilic (Wecobee M) Suppository; for Plasma Concentration of CBD-Mono-VHS: individual animals", "procedure": "CBD-Mono-Val-Mono-HS was formulated in Wecobee M suppository base (a triglyceride lipophilic base) at 75 mg/mL of melted base. The study was carried out in a cannulated rat model. Three animals were administered 100 μl. each of the semisolid formulation for a rectal dose of 7.5 mg CBD-Mono-VHS. This is followed by collection of blood samples (250 μl.) at each data point (0, 0.25, 0.5, 1, 2, 4, 6, and 24 hr.). The blood was centrifuged and the plasma was used for LC-MS/MS analysis."}, "[3]": {"assay": "Oral bioavailability of CBD-Mono-VHS in sesame seed oil (Example 18)", "assay_type": "in vivo", "conditions": "rats; for Plasma Concentration of CBD-Mono-VHS, Average / Plasma Concentration of CBD-Mono-VHS: oral 4 mg/animal in sesame seed oil; for Plasma Concentration of CBD-Mono-VHS: individual animals", "procedure": "CBD-Mono-VHS was formulated in a sesame seed oil (Welch, Holme and Clark Co. lot #39375) formulation composed of 40 mg/mL solution of the drug substance/mi. Animals (cannulated rats, n=4) were dosed 100 μl of the oil solution by oral gavage. Blood samples were collected at 0, 0.25, 0.5, 1, 2, 4, 6, 8, and 24 hr. after dosing. The blood samples were centrifuged and the plasma was analyzed for CBD-Mono-VHS. Table 7 and FIG. 5 show the results, with very high blood levels which remain significant (>10 ng/mL) at 24 hr. after dosing."}, "[4]": {"test_system": "cisplatin-induced tactile allodynia", "assay": "Cisplatin-induced tactile allodynia model, electronic von Frey (Examples 23, 24)", "assay_type": "in vivo, C57BL/6 mice", "conditions": "Example 24, mice; for Doses with mean withdrawal thresholds significantly higher compared to vehicle: ps≤0.0001"}, "[5]": {"test_system": "morphine place preference", "assay": "Morphine conditioned place preference, model of addiction (Example 25)", "conditions": "mice, morphine groups, IP; CBD 2.5-20.0 mg/kg, CBD-val-HS 10.0 mg/kg"}, "[6]": {"conditions": "Table 3, Set 1, rabbit eye, 90 min post topical 50 μL Tocrisolve emulsion, dose 0.25 mg CBD"}, "[7]": {"conditions": "Table 4, Set 2, rabbit, 90 min post topical 50 μL Tocrisolve emulsion, dose 250 μg"}, "[8]": {"conditions": "rabbit eye, 90 min post topical, 0.25 mg CBD"}},
  "note": "Several values for one entry are separate records, joined by “and”; a condition that tells them apart may be missing. Identical values can stand only once.",
  "data": [
    {"smiles": "C=C(C)C1CCC(C)=CC1c1c(O)cc(CCCCC)cc1OC(=O)[C@@H](NC(=O)CCC(=O)O)C(C)C", "note": "(stereo partly drawn) [CBD-Mono-VHS, CBD-Mono-Valinate-Mono-Hemisuccinate]", "values": [
      {"measurement": "Analog Conc., AQ Humor", "setting": "[1]; [6]", "result": "90.3 ± 13.6 ng/g of tissue"},
      {"measurement": "Analog Conc., Iris Ciliary Bodies", "setting": "[1]; [6]", "result": "1034 ± 87.4 ng/g of tissue"},
      {"measurement": "Analog Conc., Retina Choroid", "setting": "[1]; [6]", "result": "689 ± 127 ng/g of tissue"},
      {"measurement": "CBD Conc., Iris Ciliary Bodies", "setting": "[1]; [6]", "result": "353 ± 43^ ng/g of tissue"},
      {"measurement": "CBD Conc., Retina Choroid", "setting": "[1]; [6]", "result": "194 ± 31.2 ng/g of tissue"},
      {"measurement": "Analog Concentration, Aqueous Humor", "setting": "[1]; [7]", "result": "98.7 ± 19.8 ng/g of tissue"},
      {"measurement": "Analog Concentration, Iris Ciliary Bodies", "setting": "[1]; [7]", "result": "422 ± 197 ng/g of tissue"},
      {"measurement": "Analog Concentration, Retina Choroid", "setting": "[1]; [7]", "result": "519 ± 476 ng/g of tissue"},
      {"measurement": "CBD concentration, Aqueous Humor", "setting": "[1]; [7]", "result": "61.3 ± 5.9 ng/g of tissue"},
      {"measurement": "CBD concentration, Iris Ciliary Bodies", "setting": "[1]; [7]", "result": "585 ± 103 ng/g of tissue"},
      {"measurement": "CBD concentration, Retina Choroid", "setting": "[1]; [7]", "result": "503 ± 373 ng/g of tissue"},
      {"measurement": "Ocular tissue levels of free CBD, in words (Example 13)", "setting": "[1]; [8]", "result": "high levels of Free CBD in the retina choroid and iris-ciliary bodies"},
      {"measurement": "Ocular tissue levels of the applied substance, in words (Example 13)", "setting": "[1]; [8]", "result": "detected in high concentration in the aqueous humor, retina choroid and iris-ciliary bodies"},
      {"measurement": "Penetration into the ocular tissues, in words (Example 14)", "setting": "[1]; rabbit eye, topical Tocrisolve emulsion", "result": "superior analog for penetration into the different tissues of the eye"},
      {"measurement": "Plasma Concentration of CBD-Mono-VHS, Average", "setting": "[2]; 0 hr", "result": 0.0},
      {"measurement": "Plasma Concentration of CBD-Mono-VHS", "setting": "[2]; 0 hr", "result": 0.0},
      {"measurement": "Plasma Concentration of CBD-Mono-VHS, Average", "setting": "[2]; 0.25 hr", "result": 6.0},
      {"measurement": "Plasma Concentration of CBD-Mono-VHS", "setting": "[2]; 0.25 hr", "result": "7.1 (2×) and 3.9"},
      {"measurement": "Plasma Concentration of CBD-Mono-VHS, Average", "setting": "[2]; 0.5 hr", "result": 11.1},
      {"measurement": "Plasma Concentration of CBD-Mono-VHS", "setting": "[2]; 0.5 hr", "result": "9.0 and 12.8 and 11.6"},
      {"measurement": "Plasma Concentration of CBD-Mono-VHS, Average", "setting": "[2]; 1 hr", "result": 15.5},
      {"measurement": "Plasma Concentration of CBD-Mono-VHS", "setting": "[2]; 1 hr", "result": "14.1 and 13.8 and 18.5"},
      {"measurement": "Plasma Concentration of CBD-Mono-VHS, Average", "setting": "[2]; 2 hr", "result": 20.6},
      {"measurement": "Plasma Concentration of CBD-Mono-VHS", "setting": "[2]; 2 hr", "result": "12.7 and 14.5 and 34.6"},
      {"measurement": "Plasma Concentration of CBD-Mono-VHS, Average", "setting": "[2]; 4 hr", "result": 31.5},
      {"measurement": "Plasma Concentration of CBD-Mono-VHS", "setting": "[2]; 4 hr", "result": "22.0 and 27.5 and 45.1"},
      {"measurement": "Plasma Concentration of CBD-Mono-VHS, Average", "setting": "[2]; 6 hr", "result": 39.8},
      {"measurement": "Plasma Concentration of CBD-Mono-VHS", "setting": "[2]; 6 hr", "result": "24.8 and 41.6 and 53.0"},
      {"measurement": "Plasma Concentration of CBD-Mono-VHS, Average", "setting": "[2]; 24 hr", "result": 17.2},
      {"measurement": "Plasma Concentration of CBD-Mono-VHS", "setting": "[2]; 24 hr", "result": "7.3 and 44.3"},
      {"measurement": "Plasma Concentration of CBD-Mono-VHS, Average", "setting": "[3]; 0 hr", "result": 0.0, "unit": "ng/mL"},
      {"measurement": "Plasma Concentration of CBD-Mono-VHS", "setting": "[3]; 0 hr", "result": 0.0, "unit": "ng/mL"},
      {"measurement": "Plasma Concentration of CBD-Mono-VHS, Average", "setting": "[3]; 0.25 hr", "result": 1029.0, "unit": "ng/mL"},
      {"measurement": "Plasma Concentration of CBD-Mono-VHS", "setting": "[3]; 0.25 hr", "result": "1255.5 ng/mL and 1512.3 ng/mL and 370.2 ng/mL and 978.0 ng/mL"},
      {"measurement": "Plasma Concentration of CBD-Mono-VHS, Average", "setting": "[3]; 0.5 hr", "result": 1626.3, "unit": "ng/mL"},
      {"measurement": "Plasma Concentration of CBD-Mono-VHS", "setting": "[3]; 0.5 hr", "result": "1174.8 ng/mL and 2655.0 ng/mL and 1437.1 ng/mL and 1238.2 ng/mL"},
      {"measurement": "Plasma Concentration of CBD-Mono-VHS, Average", "setting": "[3]; 1 hr", "result": 2127.5, "unit": "ng/mL"},
      {"measurement": "Plasma Concentration of CBD-Mono-VHS", "setting": "[3]; 1 hr", "result": "1400.6 ng/mL and 3120.9 ng/mL and 2496.6 ng/mL and 1492.0 ng/mL"},
      {"measurement": "Plasma Concentration of CBD-Mono-VHS, Average", "setting": "[3]; 2 hr", "result": 593.5, "unit": "ng/mL"},
      {"measurement": "Plasma Concentration of CBD-Mono-VHS", "setting": "[3]; 2 hr", "result": "392.2 ng/mL and 1317.3 ng/mL and 399.5 ng/mL and 264.8 ng/mL"},
      {"measurement": "Plasma Concentration of CBD-Mono-VHS, Average", "setting": "[3]; 4 hr", "result": 234.8, "unit": "ng/mL"},
      {"measurement": "Plasma Concentration of CBD-Mono-VHS", "setting": "[3]; 4 hr", "result": "115.1 ng/mL and 423.3 ng/mL and 116.1 ng/mL and 284.8 ng/mL"},
      {"measurement": "Plasma Concentration of CBD-Mono-VHS, Average", "setting": "[3]; 6 hr", "result": 212.0, "unit": "ng/mL"},
      {"measurement": "Plasma Concentration of CBD-Mono-VHS", "setting": "[3]; 6 hr", "result": "71.4 ng/mL and 181.0 ng/mL and 397.8 ng/mL and 197.8 ng/mL"},
      {"measurement": "Plasma Concentration of CBD-Mono-VHS, Average", "setting": "[3]; 8 hr", "result": 152.2, "unit": "ng/mL"},
      {"measurement": "Plasma Concentration of CBD-Mono-VHS", "setting": "[3]; 8 hr", "result": "44.6 ng/mL and 89.8 ng/mL and 210.0 ng/mL and 264.4 ng/mL"},
      {"measurement": "Plasma Concentration of CBD-Mono-VHS, Average", "setting": "[3]; 24 hr", "result": 27.2, "unit": "ng/mL"},
      {"measurement": "Plasma Concentration of CBD-Mono-VHS", "setting": "[3]; 24 hr", "result": "6.5 ng/mL and 37.8 ng/mL and 47.1 ng/mL and 17.5 ng/mL"},
      {"measurement": "blood levels which remain significant at 24 hr. after dosing", "setting": "[3]; oral 4 mg/animal, 24 hr", "result": "> 10", "unit": "ng/mL"},
      {"measurement": "Effect on cisplatin-induced tactile allodynia (eVF paw withdrawal), in words", "setting": "[4]; 1.0 to 4.0 mg/kg (CBD equivalent) IP alone", "result": "dose-dependent attenuation of tactile allodynia that equal 2.5 mg/kg morphine at 3.0 and 4.0 mg/kg"},
      {"measurement": "Effect on cisplatin-induced tactile allodynia (eVF paw withdrawal), in words", "setting": "[4]; 1.0 to 4.0 mg/kg (CBD equivalent) in combination with 0.1 mg/kg morphine, IP", "result": "shifted this dose response curve to the left where 2.0 mg/kg CBD-Mono-VHS attenuated tactile allodynia equal to that of 2.5 mg/kg morphine"},
      {"measurement": "Doses with mean withdrawal thresholds significantly higher compared to vehicle", "setting": "[4]; IP alone", "result": "2.0 to 4.0", "unit": "mg/kg"},
      {"measurement": "Doses with mean withdrawal thresholds significantly higher compared to vehicle", "setting": "[4]; IP, combination with 0.1 mg/kg morphine", "result": "1.0 to 4.0", "unit": "mg/kg"},
      {"measurement": "Effect on morphine place preference, in words", "setting": "[5]", "result": "significantly (P=0.005) blocked the addictive effects of morphine"}
    ]}
  ]
}
